Patent US4581356A, “Triazine derivatives, and pharmaceutical compositions comprising the same” (Fujisawa Pharmaceutical Co., Ltd., priority 1983, dated 1986)

Key:
[1] = tested on: platelet aggregation (ADP as inducer); assay: Inhibition of ADP-induced platelet aggregation in platelet rich plasma; format: cell-based; details: Oryctolagus cuniculus, rabbit PRP, 37° C., ADP 2.5 μM, read-out: ID50 ADP
Description: (§1) Platelet rich plasma (PRP) which contains 6.5-7.5×10^8 platelet/ml was prepared from rabbit blood. To the 200 μl of PRP, 5 μl of calcium chloride (1 mM) and 50 μl of pH 7.4 Tris-acetate solution (5 mM) containing 120 mM NaCl and test compound were added successively, and then stirred for 2 min. at 37° C. To the solution, 5 μl of adenosine diphosphate (ADP) (2.5 μM) or collagen (2.5 μg/ml) was added as an aggregation inducer. Aggregation was measured by using an aggregometer (NKK HEMA TRACER 1).

blood pressure = assay: Antihypertensive activity in uninephrectomized DOCA/saline hypertensive rats (mean arterial pressure); format: in vivo, male Wister rats; details: orally, DOCA rats
Description: Five-week old male Wister rats were uninephrectomized under anesthesia. Deoxycorticosterone acetate (DOCA) (30 mg/kg), suspended in peanut oil, was injected subcutaneously twice a week and 1% saline was substituted for the drinking water. Animals with mean blood pressure 150-200 mmHg were used for experiment between 5 and 7 weeks after surgery.
The test compounds were administered intraperitonealy or orally. Blood pressure was measured at the femoral artery by means of a pressure transducer and recorded as electrically integrated values of mean arterial pressure.

[2] = tested on: platelet aggregation (collagen as inducer); assay: Inhibition of collagen-induced platelet aggregation in platelet rich plasma; format: cell-based; details: Oryctolagus cuniculus, rabbit PRP, 37° C., collagen 2.5 μg/ml, read-out: ID50 Collagen
Description: as §1

ulcers (stomach) = assay: Antiulcer activity: inhibition of ulcer area in rats immobilized in water bath; format: in vivo, Sprague-Dawley rats; details: orally, 7 hours
Description: Sprague-Dawley rats weighing about 200 g were used. Each animal was immobilized in a small cage and put in a water bath allowing to respire. The temperature of the water bath kept at 22° C. The test compound was administered orally just before the immobilization. Seven hours later, the animals were sacrificed and their stomachs were removed. The stomach was then fixed with 2% formalin. The area of ulcers was measured for each animal. The mean area (mm^2) in the test animals was compared with that in the control animals and inhibition effect (%) were calculated.

| SMILES | IC50 [1] | IC50 [2] | Effect Max (mean ratio of maximum decrease of blood pressure) (blood pressure; 1 mg/kg (dose b)) | Effect Max (mean ratio of maximum decrease of blood pressure) (blood pressure; 0.1 mg/kg (dose a)) | Effect (inhibition of ulcer area) (ulcers (stomach); 10 mg/kg (dose c)) | Effect (inhibition of ulcer area) (ulcers (stomach); 32 mg/kg (dose d)) |
| --- | --- | --- | --- | --- | --- | --- |
| CC1NC(=O)NN=C1c1ccc2c(c1)CCCN2C(=O)C1CCC1 (stereo not drawn) [Example 14, 6-(1-Cyclobutanecarbonyl-1,2,3,4-tetrahydroquinolin-6-yl)-5-methyl-4,5-dihydro-1,2,4-triazin-3(2H)-one] | 250 nM | 81 nM |  |  |  |  |
| CN1C(=O)Cc2cc(C3=NNC(=O)NC3)ccc21 [Example 9 - (4), 6-(1-Methyl-2-indolinon-5-yl)-4,5-dihydro-1,2,4-triazin-3(2H)-one] | 4600 nM | 2700 nM |  |  |  |  |
| CC1NC(=O)NN=C1c1ccc2c(c1)CCCN2C(=O)C1CC1 (stereo not drawn) [Example 13, 6-(1-cyclopropanecarbonyl-1,2,3,4-tetrahydroquinolin-6-yl)-5-methyl-4,5-dihydro-1,2,4-triazin-3(2H)-one] | 160 nM | 34 nM |  |  |  |  |
| CN1C(=O)CCc2cc(C3=NNC(=O)NC3)ccc21 [Example 8 - (4), 6-(1-methyl-2-oxo-1,2,3,4-tetrahydroquinolin-6-yl)-4,5-dihydro-1,2,4-triazin-3(2H)-one] | 360 nM | 240 nM | 49% | 15% | 68.0% | 80.0% |

Now from value to molecule, other results behind:

| IC50 [1] | IC50 [2] | SMILES | Effect Max (mean ratio of maximum decrease of blood pressure) (blood pressure; 1 mg/kg (dose b)) | Effect Max (mean ratio of maximum decrease of blood pressure) (blood pressure; 0.1 mg/kg (dose a)) | Effect (inhibition of ulcer area) (ulcers (stomach); 10 mg/kg (dose c)) | Effect (inhibition of ulcer area) (ulcers (stomach); 32 mg/kg (dose d)) |
| --- | --- | --- | --- | --- | --- | --- |
| 1400 nM | 540 nM | CC(=O)N1CCCc2cc(C3=NNC(=O)NC3C)ccc21 (stereo not drawn) [Example 10 - (5), 6-(1-acetyl-1,2,3,4-tetrahydroquinolin-6-yl)-5-methyl-4,5-dihydro-1,2,4-triazin-3(2H)-one] | 40% |  |  |  |
| 3700 nM | 1900 nM | CC(=O)N1CCCc2ccc(C3=NNC(=O)NC3C)cc21 (stereo not drawn) [Example 11 - (3), 6-(1-Acetyl-1,2,3,4-tetrahydroquinolin-7-yl)-5-methyl-4,5-dihydro-1,2,4-triazin-3(2H)-one] |  |  |  |  |
| 67 nM | 48 nM | CC1NC(=O)NN=C1c1ccc2c(ccc(=O)n2C)c1 (stereo not drawn) [Example 12 - (3), 6-(1-Methyl-2-oxo-1,2-dihydroquinolin-6-yl)-5-methyl-4,5-dihydro-1,2,4-triazin-3(2H)-one] | 58% | 40% |  |  |
| 5800 nM | 2000 nM | CC1NC(=O)NN=C1c1ccc2c(c1)CCCN2C (stereo not drawn) [Example 15, 6-(1-methyl-1,2,3,4-tetrahydroquinolin-6-yl)-5-methyl-4,5-dihydro-1,2,4-triazin-3(2H)-one] | 68% |  |  |  |
| 1300 nM | 470 nM | CC1NC(=O)NN=C1c1ccc2c(c1)CCCN2 (stereo not drawn) [Example 10 - (6), 6-(1,2,3,4-tetrahydroquinolin-6-yl)-5-methyl-4,5-dihydro-1,2,4-triazin-3(2H)-one] | 57% | 33% |  |  |
| 56000 nM | 22000 nM | CC1NC(=O)NN=C1c1ccc2c(c1)NCCC2 (stereo not drawn) [Example 11 - (4), 6-(1,2,3,4-Tetrahydroquinolin-7-yl)-5-methyl-4,5-dihydro-1,2,4-triazin-3(2H)-one] |  |  |  |  |
